In US4423039A, “Disaggregated solutions of polypeptides, their preparation and use” (The Hospital for Sick Children, priority 1980, dated 1983):

Columns and labels:
[1] = target: T1, zinc insulin crystals (Sus scrofa, UniProt P01315); assay: dissolution times of zinc insulin crystals exposed to test solutions (microscope slide assay); type: physicochemical, pork
T1 construct: measures the dissolution times of zinc insulin crystals
Description: (§1) The test involved transferring pork insulin crystals to a clean microscope slide using the tip of a 25 G needle so that 10 to 30 crystals were distributed in the field of view. A 25 μl aliquot of the test solution was pipetted to form a small droplet which covered the crystals. […] The pH's of the test solutions were measured and the former were adjusted where appropiate to pH 7.5 using 1 N NaOH or 1 N HCl.

[2] = target: Neutral pork insulin (Sus scrofa, UniProt P01315); details: 2.5, 25, 250 and 2,500 mmolar; 5 U/ml neutral pork insulin, 0.1 g copper per 10 ml, shaken at 37° C., pH 7.5, triplicate
Description: Biostatic water was used as the diluent. Neutral pork insulin was added to each to give a final concentration of 5 U/ml. To each sterile 10 ml vial 0.1 g of copper was added. Control vials were prepared exactly as above but no bicarbonate was added. The vials were aggitated on an Eberback shaker at 37° C. The experiment was run in triplicate at pH 7.5.

[3] = target: glucagon (Homo sapiens, UniProt P01275); assay: dissolution of glucagon crystals in test solutions (tested as for insulin); type: physicochemical; details: 150 mmol solution (pH 7.5) in distilled water
Description: as §1

[4] = test solution 150 mmol/l, pH 7.5, 25 μl droplet on pork zinc insulin crystals

T1 sequence (P01315 25-54 limits assumed): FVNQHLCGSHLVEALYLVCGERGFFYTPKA
T1 sequence (P01315 88-108 limits assumed): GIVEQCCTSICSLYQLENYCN
Sequence of Neutral pork insulin (P01315 25-54 limits assumed): as the sequence (P01315 25-54 limits assumed) above
Sequence of glucagon (P01275 53-81 limits assumed, species assumed): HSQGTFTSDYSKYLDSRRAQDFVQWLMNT

| Structure (SMILES) | Dissolution Time ± SEM [1, 4] [s] | time vials remained clear (no aggregation) to date [2] [days] | Dissolution Time ± SEM ([1]; test solution 25 mmol/l, pH 7.5) [s] | dissolution time of glucagon [3] [s] | fraction of insulin crystals dissolved at 300 sec ([1]; 25 mmol/l, at 300 sec) [%] |
| --- | --- | --- | --- | --- | --- |
| O=CO [Formic Acid] | > 1200 |  |  |  |  |
| O=C([O-])O.[Na+] [Sodium Bicarbonate] | 50 ± 5 | ≥ 35 | 360 ± 20 | 45 ± 12 |  |
| NC(N)=O [Urea] |  |  |  |  | 20 |
| CC(O)C(=O)O (stereo not shown) [Lactic Acid] | > 1200 |  |  |  |  |
